Laboratory results from patent US7091238B1, “Thienylhydrazon with digitalis-like properties (positive inotropic effects)” (University of Maryland, priority 1999, dated 2006).

Columns and labels:
[1] = test system: neuromuscular transmission; assay: Contractions of gastrocnemius muscle induced by stimulation of the sciatic nerve; format: in vivo; conditions: rat gastrocnemius
Method: FIG. 30. Records of contractions induced by stimulation of the sciatic nerve of equilibrated rat gastrocnemius muscles and of arterial pressure. In control, contractions were induced by intravenous injection of DMSO ([…]). LASSBio-294 was administered in DMSO. Calibration: Horizontal, 1 cm=24 s; Vertical 2 g=100 mm Hg.
FIG. 31. Records of contractions of rat gastrocnemius muscles induced by stimulation of the sciatic nerve and of arterial pressure. For control, contraction was induced by intravenous injection of […] (0.04 ml). LASSBio-294 was administered in DMSO.

[2] = test system: rat thoracic aorta; conditions: reported by Delpy and Gouville (1996); cited from earlier work

SMILES: C=CC[N@@+]12CC[C@@]34c5ccccc5N5/C=C6/[C@H]7C[C@H]8[C@@]9(CC[N@@+]8(CC=C)C/C7=C/CO)c7ccccc7N(/C=C(/[C@@H](C[C@@H]31)/C(=C\CO)C2)[C@H]54)[C@@H]69.[Cl-].[Cl-] [alloferine, reference compound]
- depression of muscle contraction (test of functionality of the model) [1]: depression of muscle contraction

SMILES: CCCOc1ccc(NS(C)(=O)=O)cc1-c1nc2c(c(C)nn2C)c(=O)[nH]1 [DMPPO]
- relaxant effect after removal of endothelium [2]: lost its effect
